According to ChEMBL document CHEMBL1201862, “PubChem BioAssay data set” (2004):
The source made the active and inactive calls.

Key:
[1] = molecular target: Eukaryotic translation initiation factor 4E (Mus musculus, UniProt P63073); experiment: eIF4E–eIF4G protein interaction inhibitors, dose response, biochemical, TR-FRET (AID 855); assay type: functional;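 also: potency for disrupting eIF4E binding to eIF4GI seen as loss of FRET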
[2] = CRF-BP/CRF-R2 complex antagonists, dose response, cell-based, uHTS hits, 384-well (AID 651639); assay type: functional, Homo sapiens; conditions: read-out: IC50_Mean
[3] = control 3'UTR Renilla luciferase suppression, dose response, counter-screen for Shn3 inhibitor project, cell-based, Clone20-Shn3RL, cherry-picked (AID 624133); assay type: functional
[4] = molecular target: T1, Short transient receptor potential channel 4 (Mus musculus, UniProt Q9QUQ5); experiment: mouse TRPC4 channel inhibitors, dose response, cell-based, HEK293 TRPC4/mu-opioid, Fluo-4 calcium (AID 434942); assay type: functional;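 also: potency of inhibitors blocking the TRPC4 calcium response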
T1 sequence (Q9QUQ5 whole entry): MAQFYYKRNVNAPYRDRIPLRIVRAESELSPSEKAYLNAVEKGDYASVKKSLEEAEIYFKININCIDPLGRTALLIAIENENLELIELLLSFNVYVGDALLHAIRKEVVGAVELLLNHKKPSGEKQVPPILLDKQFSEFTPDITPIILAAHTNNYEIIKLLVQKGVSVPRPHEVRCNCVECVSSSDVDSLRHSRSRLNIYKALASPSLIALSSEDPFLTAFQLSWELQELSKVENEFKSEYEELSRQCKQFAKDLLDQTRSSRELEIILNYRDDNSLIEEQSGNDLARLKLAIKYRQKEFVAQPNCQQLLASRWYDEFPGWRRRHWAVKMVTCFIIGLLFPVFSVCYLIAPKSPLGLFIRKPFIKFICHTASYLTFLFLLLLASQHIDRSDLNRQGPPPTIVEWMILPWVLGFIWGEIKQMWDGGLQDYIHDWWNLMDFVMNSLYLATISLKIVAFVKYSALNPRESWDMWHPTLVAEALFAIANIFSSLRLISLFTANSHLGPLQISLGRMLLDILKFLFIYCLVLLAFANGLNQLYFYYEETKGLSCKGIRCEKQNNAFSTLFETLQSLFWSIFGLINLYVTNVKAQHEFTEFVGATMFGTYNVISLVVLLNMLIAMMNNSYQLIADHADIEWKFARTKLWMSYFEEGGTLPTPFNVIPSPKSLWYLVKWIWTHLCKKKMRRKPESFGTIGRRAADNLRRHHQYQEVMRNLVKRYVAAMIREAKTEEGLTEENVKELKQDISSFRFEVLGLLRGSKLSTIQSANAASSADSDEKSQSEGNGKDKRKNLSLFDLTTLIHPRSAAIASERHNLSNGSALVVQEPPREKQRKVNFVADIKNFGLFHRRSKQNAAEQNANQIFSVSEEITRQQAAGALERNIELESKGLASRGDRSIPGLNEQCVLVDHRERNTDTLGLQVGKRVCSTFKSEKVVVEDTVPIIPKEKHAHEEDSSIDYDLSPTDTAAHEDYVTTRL

[5] = inhibitors of intracellular T. cruzi replication, confirmation, NIH3T3 host cells, beta-gal luminescence (AID 2044); assay type: functional, cell-based;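 also: intracellular parasites grown in NIH/3T3 mouse fibroblasts as host cells; luminescent beta-galactosidase reporter signal from transgenic T. cruzi replicating inside host cells; inhibitors lower the luminescence signal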
Streptococcus = experiment: Group A Streptococcus viability loss, dose response, counter-screen for streptokinase expression inhibitor project, luminescence, BacTiterGlo (AID 1915); assay type: functional, organism-based;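 also: potency for reduction of bacterial viability or growth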
Streptokinase A = molecular target: T2, Streptokinase A (Streptococcus pyogenes serotype M1, UniProt P10520); experiment: S. pyogenes streptokinase expression inhibitors, potency, dose response, plasminogen activation absorbance, OD405 (AID 1914); assay type: functional, Streptococcus pyogenes M1 GAS;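 also: secreted streptokinase activity via plasminogen activation per viability signal from cell pellet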
T2 sequence (P10520 whole entry): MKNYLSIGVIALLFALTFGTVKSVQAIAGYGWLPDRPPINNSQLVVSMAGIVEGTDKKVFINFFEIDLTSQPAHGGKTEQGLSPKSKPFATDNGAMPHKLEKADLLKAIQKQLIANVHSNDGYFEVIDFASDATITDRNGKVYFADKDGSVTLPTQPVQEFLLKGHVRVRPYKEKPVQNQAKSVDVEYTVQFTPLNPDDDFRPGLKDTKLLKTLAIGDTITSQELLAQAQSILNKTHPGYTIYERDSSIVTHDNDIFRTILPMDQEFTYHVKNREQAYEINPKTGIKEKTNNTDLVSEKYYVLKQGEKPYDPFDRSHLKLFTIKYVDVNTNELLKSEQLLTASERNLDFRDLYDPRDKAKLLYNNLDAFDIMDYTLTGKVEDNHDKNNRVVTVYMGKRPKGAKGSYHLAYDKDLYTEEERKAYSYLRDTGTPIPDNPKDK

[6] = Shn3 3'UTR reporter inhibitors, dose response, cell-based, Clone20 osteoblasts, firefly luciferase, cherry-picked (AID 624132); assay type: functional;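 also: firefly luciferase luminescence from reporter carrying the Shn3 3'UTR in osteoblasts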
[7] = HepG2 cell cytotoxicity, dose response, cytotoxicity control for Shn3 inhibitor project, CellTiter-Glo, cherry-picked (AID 624134); assay type: functional, cell-based
[8] = cytotoxicity toward NIH3T3 fibroblasts, dose response, counter-screen, cell-based, ATP luminescence, mouse fibroblasts (AID 2010); assay type: functional;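 also: cells exposed to compound for about 90 hours before reading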
[9] = system: Streptococcus sp. 'group A'; experiment: growth inhibition of control SK(-) GAS strain, dose response, counter-screen for streptokinase expression inhibitor project, luminescence, kanamycin, BacTiterGlo, confirmation (AID 1900); assay type: functional, organism-based
[10] = A Cell Based Secondary Assay To Explore Cytotoxicity of Compounds that Sensitize Mycobacterium Tuberculosis to Beta-Lactam Antibiotics.; assay type: functional
[11] = molecular target: T3, Corticotropin-releasing factor receptor 2/Corticotropin-releasing factor-binding protein (Homo sapiens, UniProt P24387+Q13324); experiment: activators of CRF receptor 2 with binding protein – uHTS hits, confirmation (AID 602473); assay type: functional; conditions: read-out: EC50_Mean
T3 sequence (Q13324 whole entry): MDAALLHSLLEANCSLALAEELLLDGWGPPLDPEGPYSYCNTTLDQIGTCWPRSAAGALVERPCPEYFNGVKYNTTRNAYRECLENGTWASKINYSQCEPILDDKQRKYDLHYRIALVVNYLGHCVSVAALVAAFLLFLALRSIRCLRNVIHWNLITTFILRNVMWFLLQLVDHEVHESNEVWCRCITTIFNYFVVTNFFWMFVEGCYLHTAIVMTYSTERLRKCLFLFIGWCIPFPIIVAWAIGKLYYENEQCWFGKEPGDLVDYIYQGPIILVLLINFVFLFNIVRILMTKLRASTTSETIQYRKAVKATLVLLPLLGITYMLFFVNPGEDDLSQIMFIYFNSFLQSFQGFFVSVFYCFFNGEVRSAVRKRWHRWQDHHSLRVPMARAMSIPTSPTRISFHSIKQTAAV
T3 sequence (P24387 whole entry): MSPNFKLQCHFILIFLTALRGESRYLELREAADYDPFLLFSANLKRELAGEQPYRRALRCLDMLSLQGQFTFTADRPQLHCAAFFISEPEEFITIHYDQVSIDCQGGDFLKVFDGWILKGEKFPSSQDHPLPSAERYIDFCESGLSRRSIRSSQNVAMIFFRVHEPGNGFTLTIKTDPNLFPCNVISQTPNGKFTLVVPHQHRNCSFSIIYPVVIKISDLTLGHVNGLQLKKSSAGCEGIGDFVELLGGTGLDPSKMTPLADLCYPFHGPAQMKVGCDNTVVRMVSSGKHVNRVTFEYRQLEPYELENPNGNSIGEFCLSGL

[12] = molecular target: T3, Corticotropin-releasing factor receptor 2/Corticotropin-releasing factor-binding protein; experiment: Dose Response confirmation of uHTS hits for small molecule antagonists of the CRF-binding protein and CRF-R2 receptor complex.; assay type: functional; conditions: read-out: IC50_Mean
[13] = Luminescence Cell-Based Dose Retest to Confirm Inhibitors of Cancer Stem Cells. [Related pubchem assays (depositor defined):AID2717, AID2721]; assay type: functional; conditions: Homo sapiens
[14] = molecular target: Heat shock protein HSP 90-alpha (Homo sapiens, UniProt P07900); assay type: functional, organism-based
Vero = Vero cell cytotoxicity, cytotoxicity control for flavivirus capping enzyme inhibitors (AID 588742); assay type: functional; conditions: Chlorocebus sabaeus
[15] = NIH-3T3 fibroblast cytotoxicity, dose response, cytotoxicity control, cell-based, fluorescence, Alamar Blue, secondary assay (AID 2327); assay type: functional;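 also: NIH-3T3 mouse fibroblasts cultured with fluconazole at 8 µg/mL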
Genome polyprotein = Genome polyprotein (dengue virus type 2, UniProt P29990); experiment: Dengue-2 NS5 methyltransferase inhibitors, primary screen, biochemical, confirmation dose response (AID 588689); assay type: functional
Genome polyprotein, sequence (P29990 2492-3391 limits assumed): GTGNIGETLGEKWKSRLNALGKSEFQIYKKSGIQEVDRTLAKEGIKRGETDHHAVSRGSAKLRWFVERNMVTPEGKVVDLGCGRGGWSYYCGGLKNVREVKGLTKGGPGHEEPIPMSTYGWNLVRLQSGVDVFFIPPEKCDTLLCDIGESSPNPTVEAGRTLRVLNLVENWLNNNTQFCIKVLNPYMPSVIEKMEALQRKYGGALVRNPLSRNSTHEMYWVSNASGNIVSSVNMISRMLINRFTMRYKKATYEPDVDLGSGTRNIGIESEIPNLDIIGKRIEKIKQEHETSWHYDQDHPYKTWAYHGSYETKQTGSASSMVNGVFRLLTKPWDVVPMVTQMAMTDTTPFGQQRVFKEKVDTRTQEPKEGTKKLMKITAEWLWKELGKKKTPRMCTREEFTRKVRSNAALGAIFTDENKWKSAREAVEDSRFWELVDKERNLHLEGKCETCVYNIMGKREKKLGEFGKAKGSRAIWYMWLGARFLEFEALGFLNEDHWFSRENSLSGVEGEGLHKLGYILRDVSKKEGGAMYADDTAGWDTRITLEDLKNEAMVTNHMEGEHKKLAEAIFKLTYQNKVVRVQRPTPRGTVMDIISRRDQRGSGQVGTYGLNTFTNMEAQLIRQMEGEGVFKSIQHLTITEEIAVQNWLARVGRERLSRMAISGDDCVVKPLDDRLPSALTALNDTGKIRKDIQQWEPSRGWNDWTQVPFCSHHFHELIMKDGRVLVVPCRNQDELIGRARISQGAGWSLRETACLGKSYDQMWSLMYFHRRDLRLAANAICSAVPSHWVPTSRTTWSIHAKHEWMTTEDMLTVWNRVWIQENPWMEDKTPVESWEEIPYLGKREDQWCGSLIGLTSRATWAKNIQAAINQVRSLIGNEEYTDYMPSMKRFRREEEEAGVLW

[16] = molecular target: T4, Zinc finger protein mex-5 (Caenorhabditis elegans, UniProt Q9XUB2); experiment: MEX-5/TCR-2 RNA interaction inhibitors, dose response, biochemical, C. elegans, fluorescence polarization (AID 1960)
T4 sequence (Q9XUB2 whole entry): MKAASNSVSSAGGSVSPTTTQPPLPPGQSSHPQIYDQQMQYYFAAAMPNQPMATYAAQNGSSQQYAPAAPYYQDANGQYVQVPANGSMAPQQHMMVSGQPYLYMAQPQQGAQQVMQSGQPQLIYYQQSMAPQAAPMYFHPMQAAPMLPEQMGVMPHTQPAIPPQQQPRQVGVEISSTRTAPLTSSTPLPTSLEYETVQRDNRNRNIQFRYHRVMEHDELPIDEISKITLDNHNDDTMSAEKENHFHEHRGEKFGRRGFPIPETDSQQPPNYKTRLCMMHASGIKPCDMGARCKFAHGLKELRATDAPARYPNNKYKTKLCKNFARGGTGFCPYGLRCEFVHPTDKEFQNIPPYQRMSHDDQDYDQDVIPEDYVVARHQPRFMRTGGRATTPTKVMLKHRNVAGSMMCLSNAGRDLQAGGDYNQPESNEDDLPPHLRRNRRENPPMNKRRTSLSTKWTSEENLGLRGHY

[17] = C. albicans growth with fluconazole, confirmation, fluorescence, retest (AID 2467); assay type: functional, cell-based
[18] = molecular target: T5, RNA-binding protein pos-1 (Caenorhabditis elegans, UniProt G5EF15); experiment: inhibitors of POS-1/mex-3 RNA binding, dose response, biochemical, fluorescence polarization (AID 1964);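 also: purified POS-1 fused to maltose binding protein made in E. coli; potency of compounds blocking POS-1 binding to fluorescent RNA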
T5 sequence (G5EF15 whole entry): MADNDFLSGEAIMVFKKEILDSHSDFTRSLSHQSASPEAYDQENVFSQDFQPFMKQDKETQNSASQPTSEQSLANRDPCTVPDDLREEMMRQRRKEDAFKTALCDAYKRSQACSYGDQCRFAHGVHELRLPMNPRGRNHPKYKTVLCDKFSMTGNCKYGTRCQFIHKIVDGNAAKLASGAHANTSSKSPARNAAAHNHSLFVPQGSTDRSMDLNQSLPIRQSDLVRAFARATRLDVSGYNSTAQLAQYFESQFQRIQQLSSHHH

Eukaryotic translation initiation factor 4E, sequence (P63073 whole entry): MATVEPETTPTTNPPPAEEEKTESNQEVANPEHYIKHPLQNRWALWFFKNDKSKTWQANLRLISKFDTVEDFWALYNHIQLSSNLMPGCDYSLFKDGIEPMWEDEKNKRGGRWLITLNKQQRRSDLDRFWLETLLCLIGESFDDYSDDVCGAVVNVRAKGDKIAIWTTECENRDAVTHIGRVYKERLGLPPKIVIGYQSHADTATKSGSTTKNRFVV

With `CCCN1CCN(C(=O)CCCNC(=O)Cn2cnc3sc(C)c(C)c3c2=O)CC1` the IC50 [1] was > 64 µM (inactive).

With `N#CN=C(Nc1cccc(F)c1)SCc1ccccc1` the IC50 [2] was > 20 µM (inactive).

In the case of `COc1cc(C2C(C(=O)c3ccccc3)=C(O)C(=O)N2c2ccccn2)ccc1O` (stereo unspecified), the IC50 [1] is reported as 50 µM (inactive).

In the case of `CCCn1c(NC(=O)c2ccc(Cl)c(S(=O)(=O)N3CCCC3)c2)nc2ccccc21`, the AC50 [3] is reported as 10.9 µM (active), the EC50 [4] is reported as 1.06 µM (active) and the EC50 [5] is reported as 2.63 µM (active). The EC50 (Streptococcus) was 11.6 µM (active), the EC50 (Streptokinase A) was > 150 µM (not active) and the AC50 [6] was 8.39 µM (active). For the same compound, the AC50 [7] was 38.8 µM (active), the EC50 [8] was 6.63 µM (active) and the EC50 [9] was 3.14 µM (active).

For `COc1cc(NC(=O)c2cc(-c3cccnc3)nc3ccc(Br)cc23)cc(OC)c1`, the CC50 [10] was > 40 µM (active).

In the case of `Cc1ccc(/C=N/n2c(S)nnc2-c2cccc(Cl)c2)o1`, the EC50 [11] is reported as > 53 µM (inactive), the IC50 [2] is reported as > 20 µM (inactive) and the IC50 [12] is reported as < 0.368 µM (active).

With `COc1cc(N=C(S)NCCC(c2ccccc2)c2ccccc2)c(OC)cc1Cl` the IC50 [2] was > 20 µM (inactive).

With `OC(COC(c1ccccc1)c1ccccc1)CN1CCN(c2cccc(Cl)c2)CC1` (stereo unspecified) the CC50 [10] was > 40 µM (active).

In the case of `CN1CCN(c2ccccc2NC(=O)c2ccc(-c3ccc(Cl)c(Cl)c3)o2)CC1`, the AC50 [13] is reported as 4.06 µM (active) and the CC50 [10] is reported as 25.2 µM (active).

With `CC(C)C1Nc2c(O)cc(Cl)c([N+](=O)[O-])c2C2C=CCC21` (stereo unspecified) the AC50 [14] was 8.49 µM (active), the CC50 (Vero) was 27.8 µM (active) and the EC50 [15] was 21.9 µM (inconclusive). The EC50 (Streptococcus) was 6.36 µM (active), the EC50 (Streptokinase A) was > 150 µM (not active) and the IC50 (Genome polyprotein) was 68.9 µM (active). The EC50 [16] was 58.5 µM (active), the EC50 [17] was 0.227 µM (active) and the EC50 [18] was > 300 µM (not active). The EC50 [9] was 3.07 µM (active).

With `COc1ccccc1NC(=S)NCCSc1ccc(Cl)cc1` the IC50 [1] was > 64 µM (inactive).
